Measured values as given in patent publication US8461083B2, “Herbicidal compounds” (Syngenta Limited, priority 2008, dated 2013).

Tests used:
Type in all cases: in vivo
Solanum nigrum (SOLNI) [1] = assay: Pre-emergence herbicidal glasshouse test; settings: pre-emergence (sprayed after one day cultivation), evaluated after 13 days, 100=total damage to plant, 0=no damage to plant; for PRE Application SOLNI, damage to plant: 1000 g/ha
How it was run: (§1)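 Rates of 1000 g/ha are applied as an acetone/water (50:50) spray with 0.5% Tween 20 to soil-sown pots, pre-emergence at day 1 or post-emergence at day 8. Percent damage is assessed after 13 days.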

[2] = system: Echinochloa crus-galli (ECHCG); assay: Pre-emergence herbicidal glasshouse test; settings: pre-emergence (sprayed after one day cultivation), evaluated after 13 days, 100=total damage to plant, 0=no damage to plant; for PRE Application ECHCG, damage to plant: 1000 g/ha
How it was run: (§2)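 Sow in standard soil; grow 1 d (pre-emergence) or 8 d (post-emergence) at 24/16 °C, 14 h light, 65% humidity. Spray test compound at 1000 g/ha in aqueous acetone (50:50) with 0.5% Tween 20. Grow on under the same conditions and score injury (0–100) after 13 days.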

Setaria faberi (SETFA) [3] = assay: Pre-emergence herbicidal glasshouse test; settings: pre-emergence (sprayed after one day cultivation), evaluated after 13 days, 100=total damage to plant, 0=no damage to plant; for PRE Application SETFA, damage to plant: 1000 g/ha
How it was run: as §1

[4] = system: Amaranthus retoflexus (AMARE); assay: Pre-emergence herbicidal glasshouse test; settings: pre-emergence (sprayed after one day cultivation), evaluated after 13 days, 100=total damage to plant, 0=no damage to plant; for PRE Application AMARE, damage to plant: 1000 g/ha
How it was run: as §1

[5] = system: Alopecurus myosuroides (ALOMY); assay: Pre-emergence herbicidal glasshouse test; settings: pre-emergence (sprayed after one day cultivation), evaluated after 13 days, 100=total damage to plant, 0=no damage to plant; for PRE Application ALOMY, damage to plant: 1000 g/ha
How it was run: as §1

Solanum nigrum (SOLNI) [6] = assay: Post-emergence herbicidal glasshouse test; settings: post-emergence (sprayed after 8 days cultivation), evaluated after 13 days, 100=total damage to plant, 0=no damage to plant; for POST Application SOLNI, damage to plant: 1000 g/ha
How it was run: as §1

[7] = system: Echinochloa crus-galli (ECHCG); assay: Post-emergence herbicidal glasshouse test; settings: post-emergence (sprayed after 8 days cultivation), evaluated after 13 days, 100=total damage to plant, 0=no damage to plant; for POST Application ECHCG, damage to plant: 1000 g/ha
How it was run: as §2

Setaria faberi (SETFA) [8] = assay: Post-emergence herbicidal glasshouse test; settings: post-emergence (sprayed after 8 days cultivation), evaluated after 13 days, 100=total damage to plant, 0=no damage to plant; for POST Application SETFA, damage to plant: 1000 g/ha
How it was run: as §1

[9] = system: Amaranthus retoflexus (AMARE); assay: Post-emergence herbicidal glasshouse test; settings: post-emergence (sprayed after 8 days cultivation), evaluated after 13 days, 100=total damage to plant, 0=no damage to plant; for POST Application AMARE, damage to plant: 1000 g/ha
How it was run: as §1

[10] = system: Alopecurus myosuroides (ALOMY); assay: Post-emergence herbicidal glasshouse test; settings: post-emergence (sprayed after 8 days cultivation), evaluated after 13 days, 100=total damage to plant, 0=no damage to plant; for POST Application ALOMY, damage to plant: 1000 g/ha
How it was run: as §1

Row | SMILES | PRE Application SOLNI, damage to plant (Solanum nigrum (SOLNI) [1]) | PRE Application ECHCG, damage to plant [2] | PRE Application SETFA, damage to plant (Setaria faberi (SETFA) [3]) | PRE Application AMARE, damage to plant [4] | PRE Application ALOMY, damage to plant [5] | POST Application SOLNI, damage to plant (Solanum nigrum (SOLNI) [6]) | POST Application ECHCG, damage to plant [7] | POST Application SETFA, damage to plant (Setaria faberi (SETFA) [8]) | POST Application AMARE, damage to plant [9] | POST Application ALOMY, damage to plant [10] | pest or weed control at 1000 g/ha (Solanum nigrum (SOLNI) [1]; Solanum nigrum, 312 h, read-out: PRE Application SOLNI, damage to plant) [%] | pest or weed control at 1000 g/ha ([2]; Echinochloa crus-galli, 312 h, read-out: PRE Application ECHCG, damage to plant) [%] | pest or weed control at 1000 g/ha (Setaria faberi (SETFA) [3]; Setaria faberi, 312 h, read-out: PRE Application SETFA, damage to plant) [%] | pest or weed control at 1000 g/ha ([4]; Amaranthus retroflexus, 312 h, read-out: PRE Application AMARE, damage to plant) [%] | pest or weed control at 1000 g/ha ([5]; Alopecurus myosuroides, 312 h, read-out: PRE Application ALOMY, damage to plant) [%] | pest or weed control at 1000 g/ha (Solanum nigrum (SOLNI) [6]; Solanum nigrum, 312 h, read-out: POST Application SOLNI, damage to plant) [%] | pest or weed control at 1000 g/ha ([7]; Echinochloa crus-galli, 312 h, read-out: POST Application ECHCG, damage to plant) [%] | pest or weed control at 1000 g/ha (Setaria faberi (SETFA) [8]; Setaria faberi, 312 h, read-out: POST Application SETFA, damage to plant) [%] | pest or weed control at 1000 g/ha ([9]; Amaranthus retroflexus, 312 h, read-out: POST Application AMARE, damage to plant) [%] | pest or weed control at 1000 g/ha ([10]; Alopecurus myosuroides, 312 h, read-out: POST Application ALOMY, damage to plant) [%]
1 | O=C1CCCC(=O)C1C(=O)c1cc2ccc(=O)n(Cc3ccccc3F)c2nc1C(F)(F)F [Compound 2.12] | 90 | 90 | 90 | 60 | 80 | 100 | 70 | 90 | 70 | 70 | – | – | – | – | – | – | – | – | – | –
2 | CCCn1c(=O)ccc2cc(C(=O)C3C(=O)CCCC3=O)c(C(F)(F)F)nc21 [Compound 2.13, 2-{8-n.-propyl-7-oxo-7,8-dihydro-2-trifluoromethyl-[1,8]-naphthyridine-3-carbony}-cyclohexane-1,3-dione] | 100 | 90 | 90 | 90 | 60 | 90 | 90 | 90 | 70 | 80 | – | – | – | – | – | – | – | – | – | –
3 | C=CCn1c(=O)ccc2cc(C(=O)C3C(=O)CCCC3=O)c(C(F)(F)F)nc21 [Compound 2.14, 2-{8-allyl-7-oxo-7,8-dihydro-2-trifluoromethyl-[1,8]-naphthyridine-3-carbony}-cyclohexane-1,3-dione] | 90 | 100 | 80 | 60 | 40 | 90 | 90 | 90 | 70 | 80 | – | – | – | – | – | – | – | – | – | –
4 | O=C1CCCC(=O)C1C(=O)c1cc2ccc(=O)n(CCc3ccccc3)c2nc1C(F)(F)F [Compound 2.15, 2-{8-(2-phenylethyl)-7-oxo-7,8-dihydro-2-trifluoromethyl-[1,8]-naphthyridine-3-carbonyl}-cyclohexane-1,3-dione] | – | – | – | – | – | – | – | – | – | – | 90 | 90 | 40 | 30 | 10 | 90 | 80 | 90 | 70 | 40
5 | CCOCCn1c(=O)ccc2cc(C(=O)C3C(=O)CCCC3=O)c(C(F)(F)F)nc21 [Compound 2.16, 2-{8-(2-ethoxyethyl)-7-oxo-7,8-dihydro-2-trifluoromethyl-[1,8]-naphthyridine-3-carbony}-cyclohexane-1,3-dione] | 90 | 90 | 90 | 90 | 60 | 90 | 90 | 90 | 70 | 90 | – | – | – | – | – | – | – | – | – | –
6 | CCCOCCn1c(=O)ccc2cc(C(=O)C3C(=O)CCCC3=O)c(C(F)(F)F)nc21 [Compound 2.17] | 80 | 80 | 50 | 40 | 10 | 90 | 80 | 90 | 90 | 30 | – | – | – | – | – | – | – | – | – | –
